# Measured values published in patent US12077503B2, “Substituted cyclic amides and their use as herbicides” (FMC CORPORATION, priority 2015, dated 2024).
# What was measured:
# Type in all cases: in vivo
# [1] = system: barnyardgrass (Echinochloa crus-galli); experiment: Test A preemergence
# In short: (§1)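 Visual injury, scored on a 0–100 scale relative to untreated controls, was recorded about 10 d after application. Treatments were a preemergence soil spray over planted seeds or a postemergence spray on plants at the one- to two-leaf stage, 2 to 10 cm tall, all in loam soil–sand blend in the greenhouse.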
# Kochia (Kochia scoparia) [2] = experiment: Test A preemergence
# In short: as §1
# [3] = system: giant foxtail (Setaria faberii); experiment: Test A preemergence
# In short: as §1
# [4] = system: ryegrass, Italian (Italian ryegrass, Lolium multiflorum); experiment: Test A preemergence
# In short: as §1
# [5] = system: ragweed (common ragweed, Ambrosia elatior); experiment: Test A preemergence
# In short: as §1
# [6] = system: pigweed (Amaranthus retroflexus); experiment: Test A preemergence
# rice (Oryra sativa) = experiment: Test B flooded paddy test; conditions: Flood, 250 g ai/ha; 0 to 100 scale where 0 is no effect and 100 is complete control; 13 to 15 d
# In short: (§2)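 Compound goes directly into floodwater once pots are flooded 3 cm above soil, targeting plants at two leaves; the water depth is then held for the test duration. Plants sit 13–15 d in a greenhouse and are rated visually, 100 denoting complete control.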
# [7] = system: sedge, umbrella (small-flower umbrella sedge, Cyperus difformis); experiment: Test B flooded paddy test; conditions: Flood, 250 g ai/ha; 0 to 100 scale where 0 is no effect and 100 is complete control; 13 to 15 d
# In short: as §2
# [8] = system: barnyardgrass (Echinochloa crus-galli); experiment: Test B flooded paddy test; conditions: Flood, 250 g ai/ha; 0 to 100 scale where 0 is no effect and 100 is complete control; 13 to 15 d
# In short: as §2
# [9] = system: ducksalad (Heteranthera limosa); experiment: Test B flooded paddy test; conditions: Flood, 250 g ai/ha; 0 to 100 scale where 0 is no effect and 100 is complete control; 13 to 15 d
# In short: as §2
# [10] = system: Galium (catchweed bedstraw, Galium aparine); experiment: Test A postemergence; conditions: postemergence, 0 to 100 scale (0 no effect, 100 complete control)
# In short: as §1
# [11] = system: blackgrass (Alopecurus myosuroides); experiment: Test A postemergence; conditions: postemergence, 0 to 100 scale (0 no effect, 100 complete control)
# In short: as §1
# [12] = system: barnyardgrass (Echinochloa crus-galli); experiment: Test A postemergence; conditions: postemergence, 0 to 100 scale (0 no effect, 100 complete control)
# In short: as §1
# Kochia (Kochia scoparia) [13] = experiment: Test A postemergence; conditions: postemergence, 0 to 100 scale (0 no effect, 100 complete control)
# In short: as §1
# [14] = system: giant foxtail (Setaria faberii); experiment: Test A postemergence; conditions: postemergence, 0 to 100 scale (0 no effect, 100 complete control)
# In short: as §1
# corn (Zea mays) = experiment: Test A postemergence; conditions: postemergence, 0 to 100 scale (0 no effect, 100 complete control)
# In short: as §1
# [15] = system: ryegrass, Italian (Italian ryegrass, Lolium multiflorum); experiment: Test A postemergence; conditions: postemergence, 0 to 100 scale (0 no effect, 100 complete control)
# In short: as §1
# [16] = system: ragweed (common ragweed, Ambrosia elatior); experiment: Test A postemergence; conditions: postemergence, 0 to 100 scale (0 no effect, 100 complete control)
# In short: as §1
# [17] = system: pigweed (Amaranthus retroflexus); experiment: Test A postemergence; conditions: postemergence, 0 to 100 scale (0 no effect, 100 complete control)
# In short: as §1
# [18] = system: wheat (Triticum aestivum); experiment: Test A postemergence; conditions: postemergence, 0 to 100 scale (0 no effect, 100 complete control)
# In short: as §1
# [19] = 125 g ai/ha, Preemergence, visual injury after approximately 10 d, 0 to 100 scale where 0 is no effect and 100 is complete control
# [20] = 500 g ai/ha, preemergence, 0 to 100 scale, 0 = no effect, 100 = complete control
# [21] = 125 g ai/ha, visual rating after approx. 10 d
# [22] = 500 g ai/ha, visual injury, approx. 10 d
smiles,measurement,setting,value
Cc1ccc(C2CN(C)C(=O)C2C(=O)Nc2ccccc2S(C)(=O)=O)cc1 (stereo not drawn) [Compound 663],"Plant response rating, Barnyardgrass",[1]; [19],90
same,"Plant response rating, Barnyardgrass",[1]; [20],100
same,"Plant response rating, Kochia",Kochia (Kochia scoparia) [2]; [19],70
same,"Plant response rating, Kochia",Kochia (Kochia scoparia) [2]; [20],80
same,"Plant response rating, Foxtail, Giant",[3]; [19],90
same,"Plant response rating, Foxtail, Giant",[3]; [20],100
same,"Plant response rating, Ryegrass, Italian",[4]; [19],30
same,"Plant response rating, Ryegrass, Italian",[4]; [20],90
same,"Plant response rating, Ragweed",[5]; [19],30
same,"Plant response rating, Ragweed",[5]; [20],70
same,"Plant response rating, Pigweed",[6]; [19],30
same,"Plant response rating, Pigweed",[6]; [20],70
same,"Plant response rating, Rice",rice (Oryra sativa),0
same,"Plant response rating, Sedge, Umbrella",[7],0
same,"Plant response rating, Barnyardgrass",[8],70
same,"Plant response rating, Ducksalad",[9],98
same,"Plant response rating, Galium",[10]; [21],50
same,"Plant response rating, Galium",[10]; [22],60
same,"Plant response rating, Blackgrass",[11]; [21],60
same,"Plant response rating, Blackgrass",[11]; [22],70
same,"Plant response rating, Barnyardgrass",[12]; [21],90
same,"Plant response rating, Barnyardgrass",[12]; [22],90
same,"Plant response rating, Kochia",Kochia (Kochia scoparia) [13]; [21],20
same,"Plant response rating, Kochia",Kochia (Kochia scoparia) [13]; [22],60
same,"Plant response rating, Foxtail, Giant",[14]; [21],90
same,"Plant response rating, Foxtail, Giant",[14]; [22],90
same,"Plant response rating, Corn",corn (Zea mays); [21],30
same,"Plant response rating, Corn",corn (Zea mays); [22],80
same,"Plant response rating, Ryegrass, Italian",[15]; [21],40
same,"Plant response rating, Ryegrass, Italian",[15]; [22],70
same,"Plant response rating, Ragweed",[16]; [21],30
same,"Plant response rating, Ragweed",[16]; [22],40
same,"Plant response rating, Pigweed",[17]; [21],0
same,"Plant response rating, Pigweed",[17]; [22],20
same,"Plant response rating, Wheat",[18]; [21],50
same,"Plant response rating, Wheat",[18]; [22],70
